# Experimental data reported in the supplement of paper PMC10307832.
# How the values were obtained:
# Assay in all cases: relative viability (nuclei count vs DMSO), 5 days (fraction); higher = more cells survive
# VX-702 + Pemetrexed = compound: NC(=O)c1ccc(N(C(N)=O)c2c(F)cccc2F)nc1-c1ccc(F)cc1F [VX-702] + Nc1nc2[nH]cc(CCc3ccc(C(=O)N[C@@H](CCC(=O)O)C(=O)O)cc3)c2c(=O)[nH]1 [Pemetrexed] (partner 0.2 µM)
# Procedure, shortened: (§1)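 The day after seeding in 1536-well plates, lung cancer cell lines were treated by pin tool with a single drug, or with a fixed anchor-drug dose together with five library-drug doses (not always all listed) in √10 steps. After 5 days, a combined fix-and-stain solution (final 0.05% Triton X-100, 1% formaldehyde, 1 ug/ml Hoechst) was added. Nuclei counted on 4× images gave relative viability as treated counts over vehicle counts, reported as the median of duplicate plates.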
# Dabrafenib + OSI-027 = compound: CC(C)(C)c1nc(-c2cccc(NS(=O)(=O)c3c(F)cccc3F)c2F)c(-c2ccnc(N)n2)s1 [Dabrafenib] + COc1cccc2cc(-c3nc([C@H]4CC[C@H](C(=O)O)CC4)n4ncnc(N)c34)[nH]c12 [OSI-027] (partner 0.5 µM)
# Procedure, shortened: as §1
# VX-702 = compound: NC(=O)c1ccc(N(C(N)=O)c2c(F)cccc2F)nc1-c1ccc(F)cc1F [VX-702]
# Procedure, shortened: (§2)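 Five library-drug doses spaced by √10 were pinned onto vehicle-anchored 1536-well plates of lung cancer cell lines that had been kept overnight at 37 °C. Cells went 5 days without medium change, then were fixed, permeabilised and Hoechst-stained together, imaged at 4× and counted by MetaXpress. Viability is the ratio of treated-well to vehicle-well nuclei, taken as a median over plates. Plates required control CV below 25% and at least one doubling.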
# Dabrafenib = compound: CC(C)(C)c1nc(-c2cccc(NS(=O)(=O)c3c(F)cccc3F)c2F)c(-c2ccnc(N)n2)s1 [Dabrafenib]
# Procedure, shortened: as §2
Cell Line,relative viability (VX-702 + Pemetrexed; first compound 0.02 µM),relative viability (VX-702 + Pemetrexed; first compound 0.2 µM),relative viability (VX-702 + Pemetrexed; first compound 0.6325 µM),relative viability (VX-702 + Pemetrexed; first compound 2 µM),relative viability (Dabrafenib + OSI-027; first compound 0.003 µM),relative viability (Dabrafenib + OSI-027; first compound 0.009487 µM),relative viability (Dabrafenib + OSI-027; first compound 0.03 µM),relative viability (Dabrafenib + OSI-027; first compound 0.09487 µM),relative viability (Dabrafenib + OSI-027; first compound 0.3 µM),relative viability (VX-702; 0.02 µM),relative viability (VX-702; 0.2 µM),relative viability (VX-702; 0.6325 µM),relative viability (VX-702; 2 µM),relative viability (Dabrafenib; 0.003 µM),relative viability (Dabrafenib; 0.009487 µM),relative viability (Dabrafenib; 0.03 µM),relative viability (Dabrafenib; 0.09487 µM),relative viability (Dabrafenib; 0.3 µM)
UMC-11,0.908,0.711,0.755,0.922,0.439,0.504,0.481,0.475,0.49,0.923,0.857,0.82,1.12,1.04,0.988,0.855,0.997,0.956
NCI-H1437,0.345,0.261,0.318,0.324,0.926,0.849,1.04,0.922,0.878,0.995,0.973,1.06,1.15,0.939,0.971,1.02,0.971,1.02
EKVX,0.463,0.345,0.38,0.431,0.649,0.79,0.693,0.652,0.729,0.95,0.863,0.891,0.923,0.693,1.03,0.932,0.941,1.14
COR-L 105,1.06,1,1.14,1.25,0.6,0.786,0.58,0.722,0.906,0.941,0.961,0.879,0.861,0.851,0.995,0.927,0.955,1.13
NCI-H650,1.22,0.932,0.92,0.958,,0.578,0.427,0.331,0.301,1.04,,1.07,1.24,,1.17,0.708,0.575,0.564
NCI-H1648,0.737,0.617,0.75,0.818,0.225,0.249,0.298,0.244,0.209,0.926,0.877,0.688,0.63,1.02,0.861,0.814,1.12,1.17
NCI-H2009,1.12,1.08,1.03,1.15,0.423,0.617,0.321,0.249,0.251,1.23,1.15,1.2,1.26,0.883,0.974,0.894,0.625,0.628
LXF-289,0.935,0.894,0.9,0.947,0.337,0.819,0.751,0.783,0.856,1.01,1.01,1.08,1.02,0.923,1,1.16,0.944,1.14
NCI-H647,0.174,0.172,0.133,0.144,0.325,0.704,0.561,0.582,0.476,0.855,0.874,0.996,1.14,,0.967,0.71,0.871,1.01
NCI-H1666,0.869,0.869,0.89,0.808,0.805,0.869,0.833,0.797,0.968,0.968,0.854,0.972,0.75,1.01,0.943,1.03,0.984,1.01
NCI-H1734,0.386,0.377,0.413,0.409,,0.655,0.471,0.496,0.502,1.04,0.919,0.876,0.703,,1.08,0.716,0.765,0.891
BEN,0.825,0.689,0.623,0.86,,0.332,,0.305,0.269,0.853,0.879,0.866,1.06,,1.05,,0.889,1.07
PC-3 [JPC-3],1.23,1.08,1.23,1.07,0.629,0.84,0.771,0.705,0.801,1.11,0.988,1.13,1.06,0.822,1.08,1.11,1.03,1.13
NCI-H2228,0.338,0.336,0.37,0.342,,0.668,0.554,0.52,0.607,1.11,1.06,0.84,1.08,0.864,0.987,0.994,0.902,0.944
HOP-62,0.365,0.311,0.284,0.309,0.354,0.841,0.778,0.631,0.557,1.06,0.988,1.09,1.05,0.778,1.02,1.03,0.685,0.812
